Results on 19 compounds are retold here after patent US7169803B2, “N-substituted prodrugs of fluorooxindoles” (Bristol-Myers Squibb Company, priority 2004, dated 2007).

Broadly, the melting point is the temperature of the solid-liquid transition.

For series [1] the following is noted: cited from earlier work.
Series [2] deals with traumatic brain injury (TBI). The following applies: rat TBI model; Cheney, et al. 2001; cited from earlier work.
For series [3], the system named is non-BK native currents in the oocytes. Nature of the series: Effect on non-BK native currents in oocytes (current remaining in presence of IBTX). Format: cell-based, Xenopus. The following applies: at the tested concentration. On the procedure: (§1) The ability of the compound of Formula IV to open BK channels and increase whole-cell outward (K^+) BK-mediated currents was assessed under voltage-clamp conditions by determining their ability to increase cloned mammalian (mSlo or hSlo) BK-mediated outward current heterologously expressed in Xenopus oocytes [Butler, A., et al., Science, 261, pp. 221–224 (1993); and Dworetzky, S. I., et al., Mol. Brain Res., 27, pp. 189–193 (1994)]. The two BK constructs employed represent nearly structurally identical homologous proteins, and have proven to be pharmacologically identical in our tests. To isolate BK current from native (background, non-BK) current, the specific and potent BK channel-blocking toxin iberiotoxin (IBTX) [Galvez, A., et al., J. Biol. Chem, 265, pp. 11083–11090 (1990)] was employed at a supramaximal concentration (50 nM). The relative contribution of BK channels current to total outward current was determined by subtraction of the current remaining in the presence of IBTX (non-BK current) from the current profiles obtained in all other experimental conditions (control, drug, and wash). […] The compound of Formula IV was shown in at least 5 oocytes at a concentration of 10 μM to increase BK current to 170% of control of IBTX-sensitive current. […]

Series [4] has as its system focal cerebral ischemia (MCAO). Nature of the series: Focal stroke model: permanent MCA/CCA occlusion, cortical infarct volume. The following applies: intravenously (0.3 mg//kg) single bolus two hours after MCA occlusion; vs vehicle-treated control; measured 24 hours after MCAO. Format: in vivo, Wistar rat. Here is the method:
To determine the ability of the compounds of the present invention to reduce cell loss resulting from neuronal ischemia, a standard focal cerebral ischemia is induced by permanent occlusion of the left middle cerebral artery (MCA) and common carotid artery (CCA) with one hour occlusion of the right CCA in the Wistar rat. The surgeries are performed using the sub-temporal approach of A. Tamura, et al., J. Cereb. Blood Flow Metab., 1, pp. 53–60, (1981) and its modifications [K. Osborne, et al., J. Neurol Neurosurg. Psychiatry, 50, pp. 402–410 (1987) and S. Menzies, et al., Neurosurgery, 31, pp. 100–107, (1992).]
The compound of Formula IV was evaluated in the focal stroke model involving permanent occlusion of the left MCA (MCAO) and CCA (CCAO) and temporary occlusion of the right CCA in the Wistar rat [Gribkoff, et al. Nature Med. 7, pp. 471–477 (2001)]. This procedure results in a reliably large neocortical infarct volume that is measured by means of vital dye exclusion in serial slices through the brain 24 hours after MCAO. In the present test, compounds were administered using an i.v. or i.p. route of administration two hours after occlusion.

Series [5] has as its system cloned mammalian (mSlo or hSlo) BK channels heterologously expressed in Xenopus oocytes. The experiment in a line: BK-mediated outward current in Xenopus oocytes, two-electrode voltage clamp. Format: cell-based. The following applies: 10 μM, at least 5 oocytes, steps from -60 mV to +140 mV. Here is the method:
as §1
For orientation: Two-electrode voltage clamp is typically applied to oocytes expressing channels or transporters.

The structures appear in SMILES notation. Where a name gives a salt, the structure may show the parent alone.

In the case of `COc1ccc(Cl)cc1[C@]1(F)C(=O)N(COC(=O)CN(C)C)c2cc(C(F)(F)F)ccc21` (as salt: hydrochloride) [Example 14, (S)-(3-(5-chloro-2-methoxyphenyl)-3-fluoro-2-oxo-6-(trifluoromethyl)indolin-1-yl)methyl 2-(dimethylamino)acetate, hydrochloride)], the melting point is 157 to 160 °C.
Still for that read-out and setting: then `COc1ccc(Cl)cc1[C@]1(F)C(=O)N(COC(=O)c2ccc(CN3CCOCC3)cc2)c2cc(C(F)(F)F)ccc21` (as salt: hydrochloride) [Example 23, (S)-(3-(5-chloro-2-methoxyphenyl)-3-fluoro-2-oxo-6-(trifluoromethyl)indolin-1-yl)methyl 4-(morpholinomethyl)benzoate, hydrochloride], with 174 to 178 °C.
Same read-out and setting: to `COc1ccc(Cl)cc1[C@]1(F)C(=O)N(COC(=O)c2ccc(CN3CCN(C)CC3)cc2)c2cc(C(F)(F)F)ccc21` (as salt: hydrochloride) [Example 25] belongs 265 to 269 °C (dec.).
The same measure, in the same setting: to `COc1ccc(Cl)cc1[C@]1(F)C(=O)N(COC(=O)c2cccc(CN3CCN(C)CC3)c2)c2cc(C(F)(F)F)ccc21` (as salt: hydrochloride) [Example 26] belongs 190 to 193 °C (dec.); to `CCN(CC)Cc1cccc(C(=O)OCN2C(=O)[C@@](F)(c3cc(Cl)ccc3OC)c3ccc(C(F)(F)F)cc32)c1` (as salt: hydrochloride) [Example 28, (S)-(3-(5-chloro-2-methoxyphenyl)-3-fluoro-2-oxo-6-(trifluoromethyl)indolin-1-yl)methyl 3-((diethylamino)methyl)benzoate, hydrochloride], 195 to 198 °C (dec.); to `CCN(CC)CCN(CC)Cc1ccc(C(=O)OCN2C(=O)[C@@](F)(c3cc(Cl)ccc3OC)c3ccc(C(F)(F)F)cc32)cc1` (as salt: hydrochloride) [Example 29, (S)-(3-(5-chloro-2-methoxyphenyl)-3-fluoro-2-oxo-6-(trifluoromethyl)indolin-1-yl)methyl 4-(((2-(diethylamino)ethyl)(ethyl)amino)methyl)benzoate, hydrochloride], 155 to 160 °C.
On to `CCN(CC)CCN(CC)Cc1cccc(C(=O)OCN2C(=O)[C@@](F)(c3cc(Cl)ccc3OC)c3ccc(C(F)(F)F)cc32)c1` (as salt: hydrochloride) [Example 30, (S)-(3-(5-chloro-2-methoxyphenyl)-3-fluoro-2-oxo-6-(trifluoromethyl)indolin-1-yl)methyl 3-(((2-(diethylamino)ethyl)(ethyl)amino)methyl)benzoate, hydrochloride], for which the melting point fell in the range of 120 to 125 °C.
Same read-out and setting: to `CCN(CC)Cc1ccc(C(=O)OCN2C(=O)[C@@](F)(c3cc(Cl)ccc3OC)c3ccc(C(F)(F)F)cc32)cc1` (as salt: trifluoroacetate) [Example 27, (S)-(3-(5-chloro-2-methoxyphenyl)-3-fluoro-2-oxo-6-(trifluoromethyl)indolin-1-yl)methyl 4-((diethylamino)methyl)benzoate, trifluoroacetate] belongs 75 to 80 °C; to `COc1ccc(Cl)cc1[C@]1(F)C(=O)N(COC(=O)c2ccc(CN3CCCCC3)cc2)c2cc(C(F)(F)F)ccc21` (as salt: trifluoroacetate) [Example 31, (S)-4-Piperidin-1-ylmethyl-benzoic acid 3-(5-chloro-2-methoxy-phenyl)-3-fluoro-2-oxo-6-trifluoromethyl-2,3-dihydro-indol-1-ylmethyl ester, trifluoroacetate], 85 to 89 °C.
Turning to `COc1ccc(Cl)cc1[C@]1(F)C(=O)Nc2cc(C(F)(F)F)ccc21` [Compound of Formula (S)-IV, (S)-3-(5-chloro-2-methoxyphenyl)-3-fluoro-6-(trifluoromethyl)-indolin-2-one], in series [1], the aqueous solubility result is reported as “low aqueous solubility”. Moreover, in series [2], the “reductions in edema in regions adjacent to the impact zone” value is “significant reductions in edema”.
In the case of `COc1ccc(Cl)cc1[C@]1(F)C(=O)N(C(=O)OCOC(=O)CCC(=O)O)c2cc(C(F)(F)F)ccc21` [Example 16, (S)-4-((3-(5-chloro-2-methoxyphenyl)-3-fluoro-2-oxo-6-(trifluoromethyl)indoline-1-carbonyloxy)methoxy)-4-oxobutanoic acid], the melting point was 68 to 71 °C (dec.).
For the compound `COc1ccc(Cl)cc1[C@]1(F)C(=O)N(C(=O)N[C@@H](C)C(=O)O)c2cc(C(F)(F)F)ccc21` [Example 35, (S)-2-((S)-3-(5-chloro-2-methoxyphenyl)-3-fluoro-2-oxo-6-(trifluoromethyl)-indoline-1-carboxamido)propanoic acid], the melting point fell in the range of 103 to 107 °C.
Still for that read-out and setting: then `COc1ccc(Cl)cc1[C@]1(F)C(=O)N(C(=O)N[C@@H](CCC(=O)O)C(=O)O)c2cc(C(F)(F)F)ccc21` [Example 37, (S)-2-((S)-3-(5-chloro-2-methoxyphenyl)-3-fluoro-2-oxo-6-(trifluoromethyl)-indoline-1-carboxamido)pentanedioic acid], with 90 to 94 °C; and `COc1ccc(Cl)cc1[C@]1(F)C(=O)N(C(=O)NC(C)(C)C(=O)O)c2cc(C(F)(F)F)ccc21` [Example 38, (S)-2-(3-(5-chloro-2-methoxyphenyl)-3-fluoro-2-oxo-6-(trifluoromethyl)-indoline-1-carboxamido)-2-methylpropanoic acid], with 107 to 110 °C; and `COc1ccc(Cl)cc1[C@]1(F)C(=O)N(C(=O)N[C@H](C(=O)O)C(C)C)c2cc(C(F)(F)F)ccc21` [Example 39, (S)-2-((S)-3-(5-chloro-2-methoxyphenyl)-3-fluoro-2-oxo-6-(trifluoromethyl)-indoline-1-carboxamido)-3-methylbutanoic acid], with 100 to 104 °C.
For `CC[C@H](C)[C@H](NC(=O)N1C(=O)[C@@](F)(c2cc(Cl)ccc2OC)c2ccc(C(F)(F)F)cc21)C(=O)O` [Example 40, (2S,3S)-2-((S)-3-(5-chloro-2-methoxyphenyl)-3-fluoro-2-oxo-6-(trifluoromethyl)indoline-1-carboxamido)-3-methylpentanoic acid], the melting point was in the range of 88 to 92 °C.
`COc1ccc(Cl)cc1[C@]1(F)C(=O)N(C(=O)N[C@@H](Cc2ccccc2)C(=O)O)c2cc(C(F)(F)F)ccc21` [Example 41, (S)-2-((S)-3-(5-chloro-2-methoxyphenyl)-3-fluoro-2-oxo-6-(trifluoromethyl)-indoline-1-carboxamido)-3-phenylpropanoic acid] yielded a melting point of 98 to 102 °C.
The same measure, in the same setting: to `COc1ccc(Cl)cc1[C@]1(F)C(=O)N(C(=O)NCCC(=O)O)c2cc(C(F)(F)F)ccc21` [Example 42, (S)-3-(3-(5-chloro-2-methoxyphenyl)-3-fluoro-2-oxo-6-(trifluoromethyl)-indoline-1-carboxamido)propanoic acid] belongs 72 to 76 °C.
As for `COc1ccc(Cl)cc1C1(F)C(=O)Nc2cc(C(F)(F)F)ccc21` (stereo not shown) [compound of Formula IV, 3-(5-chloro-2-methoxyphenyl)-3-fluoro-6-(trifluoromethyl)indolin-2-one], in series [3], the “effect on non-BK native currents in the oocytes” value is “did not effect non-BK native currents”. In series [4], the “reduction of cortical infarct volume” value is on record as “about 28%”. The “increase BK current to % of control of IBTX-sensitive current” value in series [5] is listed as 170 % of control.
